The molecules below were run against AMPA receptor (assay: in vitro receptor affinity test: inhibition of specific binding of ^3 H-AMPA). Settings: rat cerebral cortex membranes; ^3 H-AMPA 5 nM; 30 minutes at 2° C.; 30 mM Tris-HCl, 2.5 mM CaCl2, 100 mM KSCN, pH 7.4; read-out: IC50 (the concentration (μM) of the test substance which inhibits the specific binding of ^3 H-AMPA by 50%).
Parameters: species or system male Wistar rats (cerebral cortex)
Source text: In an in vitro activity (receptor affinity) test, the chemical compounds of the present invention have been tested for their affinity for the AMPA receptor.
L-glutamate (GLU) is the major excitatory neurotransmitter in the mammalian central nervous system. From electro-physiological- and binding studies, there appear to be at least three subtypes of GLU receptors, tentatively named N-methyl-D-aspartate (NMDA) receptors, quisqualate receptors and kainate receptors. AMPA has been known for several years to be a potent and selective agonist at the traditionally named quisqualate receptors. Activation of quisqualate receptors by AMPA is associated with Na^+ influx and K^+ efflux leading to depolarisation. ^3 H-AMPA is a selective radioligand for labelling the ionotropic quisqualate (AMPA) receptors.
Preparations are performed at 0-4° C. unless otherwise indicated. Cerebral cortex from male Wistar rats (150-200 g) is homogenised for 5-10 sec in 20 ml Tris-HCl (30 mM, pH 7.4) using an Ultra-Turrax™ homogeniser. The suspension is centrifuged at 27,000×g for 15 minutes and the pellet is washed three times with buffer (centrifuged at 27,000×g for 10 minutes). The washed pellet is homogenised in 20 ml of buffer and incubated on a water bath (of 37° C) for 30 minutes to remove endogenous glutamate and then centrifuged for 10 minutes at 27,000×g. The pellet is then homogenised in buffer and centrifuged at for 10 minutes at 27,000×g. The final pellet is resuspended in 30 ml buffer and the preparation is frozen and stored at -20° C.
The membrane preparation is thawed and centrifuged at 2° C. for 10 minutes at 27,000×g. […] Non-specific binding is determined using L-glutamate (0.6 mM, final concentration).
After incubation the 550 μl samples are added 5 ml of ice-cold buffer and poured directly onto Whatman™ GF/C glass fibre filters under suction and immediately washed with 5 ml of ice-cold buffer. […] The amount of radioactivity on the filters is determined by conventional liquid scintillation counting. […]

SMILES | IC50
CN1CCc2c(-c3ccc(S(=O)(=O)N(C)C)cc3)cc3c(c2C1)NC(=O)C3=NOC(CCO)C(=O)O (stereo not drawn) [8-methyl-5-(4-(N,N-dimethylsulfamoyl)phenyl)-6-7-8-9-tetrahydro-1H-pyrrolo[3,2-h]isoquinoline-2,3-dione-3-O-(4-hydroxybutyric acid-2-yl)oxime] | 0.05 µM
CCOC(=O)CON=C1C(=O)Nc2c1cc(-c1ccc(S(=O)(=O)N(C)C)cc1)c1c2CN(C)CC1 [8-methyl-5-(4-(N,N-dimethylsulphamoyl)phenyl-6,7,8,9-tetrahydro-1H-pyrrolo[3,2-h]isoquinoline-2,3-dione-3-O-(ethoxycarbonylmethyl)oxime] | 0.1 µM
CN1CCc2c(-c3ccc(S(=O)(=O)N(C)C)cc3)cc3c(c2C1)NC(=O)C3=NOC1CCOC1=O (stereo not drawn) [8-methyl-5-(4-(N,N-dimethylsulfamoyl)phenyl)-6-7-8-9-tetrahydro-1H-pyrrolo[3,2-h]-isoquinoline-2,3-dione-3-O-(3-(2-oxo)tetrahydrofuryl)oxime] | 0.15 µM
